# Test results reported in PubChem BioAssay AID2742 (NMMLSC, 2010).
# Activity calls are given as the source filed them.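 The calls were made as follows: active = fitted half-maximal concentration for changing background-corrected GFP signal at or below a set limit; inactive = the rest.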
# Test: TOR pathway reporter MEP2-GFP, concentration series – S. cerevisiae, flow cytometry GFP, MLPCN hits, dose response (AID 2742);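 also: GFP tag reports level of MEP2 protein as a downstream target of TOR signalling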
# Conditions: S. cerevisiae MEP2-GFP strain, flow cytometry fluorescence, 3 h; at 33 µM (top of the series)
row,Compound,"GFP fluorescence (kMESF), higher = increase"
1,NC(=O)COc1ccc(C(=O)/C=C2/C(=O)Nc3ccccc32)cc1,3.66 kMESF (inactive)
2,O=C(Nc1ccccc1)ON=C1CCCC1,2.76 kMESF (inactive)
3,CCc1ccc(/C=C/C(=O)c2cc(Br)ccc(=O)c2O)cc1,5.16 kMESF (inactive)
4,COc1ccc(N=Cc2nc(-c3ccccc3)oc2OC(=O)c2ccccc2)cc1,2.68 kMESF (inactive)
5,N#Cc1ccc(N=c2ssnc2Cl)cc1,3.37 kMESF (inactive)
6,Cc1cc(O)c(C(=O)/C=C/c2c(F)c(F)c(F)c(F)c2F)c(=O)o1,0.99 kMESF (inactive)
7,CC(C)(C)C(=O)NC(=S)NNC(=O)c1sc2ccccc2c1Cl,4.68 kMESF (inactive)
8,Oc1c(CN2CCN(c3ccc(F)cc3)CC2)cc(Cl)c2cccnc12,10.7 kMESF (inactive)
9,Cc1ccc(N2C(=O)C(Cl)=C(Nc3c(C)n(C)n(-c4ccccc4)c3=O)C2=O)cc1,1.97 kMESF (inactive)
10,COc1ccc(N2C(=O)C(Cl)=C(Nc3c(C)n(C)n(-c4ccccc4)c3=O)C2=O)cc1,2.4 kMESF (inactive)
11,O=C1C=CC(=O)N1c1ccc(N2CCCCC2)cc1,5.69 kMESF (inactive)
12,COc1ccccc1OCCCc1c(C)n[nH]c1C,3.47 kMESF (inactive)
13,COc1ccc(C(=O)/C=C2/C(=O)Nc3ccccc32)cc1OC,2.25 kMESF (inactive)
14,O=C(/C=C/c1ccccc1Cl)c1ccccc(=O)c1O,-0.57 kMESF (inactive)
15,Oc1c(C(Nc2nc3ccccc3s2)c2ccco2)ccc2cccnc12 (stereo not given),5.51 kMESF (inactive)
16,CC(=O)CSc1ncnc2c1cnn2-c1ccccc1,2.5 kMESF (inactive)
17,Cc1cccc(C(=O)NC(=S)NNC(=O)Cc2ccccc2)c1,3.56 kMESF (inactive)
18,COc1ccc(N=Cc2nc(-c3ccccc3)oc2OC(C)=O)cc1,3.51 kMESF (inactive)
19,CS(=O)(=O)N1N=C(c2ccccc2)CC1c1ccc2c(c1)OCO2 (stereo not given),78.8 kMESF (inactive)
20,O=C1C(Cl)=C(Nc2ccccc2O)C(=O)N1CCc1ccccc1,3.11 kMESF (inactive)
21,Cc1ccccc1N1C(=O)C(Cl)=C(N2CCN(c3ccccc3)CC2)C1=O,2.9 kMESF (inactive)
22,CC(C)[C@]1(c2ccc(Cl)cc2)ON(c2ccccc2C(F)(F)F)C1=O,2.37 kMESF (inactive)

row,Compound,"GFP fluorescence (kMESF), higher = increase"
1,Cc1cc(NC(=O)c2cccnc2Cl)ccc1NC(=O)c1cc2ccccc2o1,3.21 kMESF (inactive)
2,CCC(=O)Nc1ccc(NC(=O)c2cc3ccccc3o2)cc1,2.2 kMESF (inactive)
3,O=c1c2cc(Cl)ccc2nc(-c2ccc([N+](=O)[O-])cc2)n1O,4.58 kMESF (inactive)
4,CCCS(=O)(=O)c1nnnn1-c1cccc(OC)c1,2.18 kMESF (inactive)
5,O=C(C#Cc1ccccc1)c1ccco1,5.37 kMESF (inactive)
6,Oc1c(C(Nc2cccc(C(F)(F)F)c2)c2ccncc2)ccc2cccnc12 (stereo not given),4.71 kMESF (inactive)
7,Cc1ccccc1[C@]1(C)ON(c2ccccc2C(F)(F)F)C1=O,2.17 kMESF (inactive)
8,CN(C)c1ccc(N=Cc2nc(-c3ccccc3)oc2OC(=O)c2ccccc2)cc1,3.17 kMESF (inactive)
9,CCN(CC)C(=S)SSC(=S)N(CC)CC,5.19 kMESF (inactive)
10,C=C1C(O)[C@@H]2O[C@]3(CC[C@H](/C=C/C(C)[C@@H]4CC(C)=CC5(O[C@H](C[C@@](C)(O)C(=O)O)CCC5O)O4)O3)CC[C@H]2O[C@@H]1C(O)CC(C)[C@H]1OC2(CCCCO2)CCC1C (stereo not given in full),1.77 kMESF (inactive)
11,Cc1ccc(/C=C2\C(=O)NC(=S)N(c3ccccc3F)C2=O)s1,4.49 kMESF (inactive)
12,CCc1nc2ccccc2c(=O)n1NC(=O)c1c(O)c2ccccc2n(CC)c1=O,2.98 kMESF (inactive)
13,O=[N+]([O-])c1ccc(O)c(/C=N/Nc2ccccn2)c1,5.62 kMESF (inactive)
14,CCN1/C(=C/C(C)=C/c2sc3ccccc3[n+]2CC)Sc2ccccc21,4.91 kMESF (inactive)
15,Cc1[nH]c2ccccc2c1C(=O)COC(=O)c1ccc([N+](=O)[O-])s1,0.4 kMESF (inactive)
16,COc1ccc([C@]2(C(C)C)ON(c3ccccc3C(F)(F)F)C2=O)cc1,2.67 kMESF (inactive)
17,CCCCCCCCC/C(=N\O)c1ccccn1,3.61 kMESF (inactive)
18,COc1cc(/C=C2\C(=O)ON=C2c2ccccc2)cc(Br)c1O,4.31 kMESF (inactive)
19,Cc1ccc(C(=O)O/N=C(\N)Cc2cccs2)c(Cl)c1,4.31 kMESF (inactive)
20,O=C(/C=C/Sc1ncn[nH]1)c1ccc(Cl)cc1,4.24 kMESF (inactive)
21,COc1cccc(N=Nc2ccc(O)c3ncccc23)c1,5.8 kMESF (inactive)
22,COc1ccc(N2CCN(C(=O)c3ccc(Br)cc3)CC2)c([N+](=O)[O-])c1,2.28 kMESF (inactive)

row,Compound,"GFP fluorescence (kMESF), higher = increase"
1,O=[N+]([O-])c1cc(Cl)c2cccnc2c1O,5.35 kMESF (inactive)
2,C[C@H]1C[C@@H](C)C(=O)[C@@H]([C@H](O)CC2CC(=O)NC(=O)C2)C1,3.18 kMESF (inactive)
3,Oc1ccc(COCc2ccccc2)c2cccnc12,6.91 kMESF (inactive)
4,O=C(/C=C/c1cc(Br)ccc1O)c1ccco1,6.67 kMESF (inactive)
5,CCOc1ccc(N2C(=O)/C(=C\c3cccs3)C(=O)NC2=S)cc1,3.57 kMESF (inactive)
6,O=C(c1ccc(C(=O)N2CCCc3ccccc32)s1)N1CCCc2ccccc21,3.28 kMESF (inactive)
7,O=C(/C=C/c1ccc(Cl)c([N+](=O)[O-])c1)c1cccnc1,3.17 kMESF (inactive)
8,COc1ccccc1C(=O)NNC(=S)NC(=O)c1cccs1,4.73 kMESF (inactive)
9,O=c1[nH]c(-c2ccc(Cl)cc2)cs1,1.62 kMESF (inactive)
10,CSc1nnc2c3cc(F)ccc3n(C)c2n1,2.36 kMESF (inactive)
11,O=C1c2cccc3c([N+](=O)[O-])ccc(c23)C(=O)N1O,22.1 kMESF (inactive)
12,O=C(Nc1ccc(O)cc1)C1CCCN1S(=O)(=O)c1ccc(F)cc1 (stereo not given),1.62 kMESF (inactive)
13,O=C(Nc1ccc(NC(=O)c2cc3ccccc3o2)cc1)c1ccco1,2.1 kMESF (inactive)
14,Cc1cccc(OCCN2CSC(=S)N(C)C2)c1,3.71 kMESF (inactive)
15,CCCCCCCCCCCCCCCC[n+]1cccc2ccccc21,1.62 kMESF (inactive)
16,Cc1cc(=O)oc2cc(Oc3ccc([N+](=O)[O-])cc3C(F)(F)F)ccc12,2.42 kMESF (inactive)
17,O=C(NC(=S)NNC(=O)[C@H]1C[C@@H]1c1ccccc1)c1cccc(F)c1,7.02 kMESF (inactive)
18,COc1ccccc1C(=O)NNC(=S)NC(=O)c1ccco1,3.64 kMESF (inactive)
19,Cc1ccc(N=c2ssnc2Cl)cc1,4.79 kMESF (inactive)
20,COc1ccc(N2C(=O)C(Cl)=C(NCc3ccccc3)C2=O)cc1,3.91 kMESF (inactive)
21,Cc1ccc2c(nc3s/c(=C\c4ccc(-c5ccccc5C(=O)O)o4)c(=O)n32)c1C,25.5 kMESF (inactive)
22,CC(=O)Oc1oc(-c2ccccc2)nc1C=Nc1ccccc1,3.71 kMESF (inactive)

row,Compound,"GFP fluorescence (kMESF), higher = increase"
1,CC(Oc1ccc2ccccc2c1)C(=O)NNC(=S)NC(=O)c1ccco1 (stereo not given),4.16 kMESF (inactive)
2,O=C1c2cccc3c([N+](=O)[O-])ccc(c23)C(=O)N1CCc1ccccn1,5.48 kMESF (inactive)
3,COc1ccc2c(c1)c(/C=C/c1cc[n+](C)cc1)cn2C,4.56 kMESF (inactive)
4,COc1ccc(C(=O)NC(=S)NNC(=O)c2cnccn2)cc1,3.91 kMESF (inactive)
5,Nc1ccc2ccc3cccc[n+]3c2c1,5.03 kMESF (inactive)
6,CC(=O)n1cc(C(C[N+](=O)[O-])SCCN)c2ccccc21 (stereo not given),3.64 kMESF (inactive)
7,CC1(C)OC(c2ccccc2)=C/C(=C/C=C2C(=O)NC(=S)NC2=O)O1,2.7 kMESF (inactive)
8,Cc1ccc(/C=C2\SC(=S)N(Cc3ccccc3)C2=O)o1,9.98 kMESF (inactive)
9,O=C1c2ccccc2C(=O)N1OS(=O)(=O)c1ccccc1,3.26 kMESF (inactive)
10,O=c1c2cc(Br)ccc2nc(-c2ccc([N+](=O)[O-])cc2)n1O,3.87 kMESF (inactive)
11,CC(=O)SC(C[N+](=O)[O-])c1cn(C(C)=O)c2ccccc12 (stereo not given),6.37 kMESF (inactive)
12,COc1ccc([C@@]2(C(C)C)ON(c3ccccc3C(F)(F)F)C2=O)cc1,3.06 kMESF (inactive)
13,O=C1N(c2ccccc2C(F)(F)F)O[C@]1(c1ccccc1)C1CCCCC1,3.28 kMESF (inactive)
14,O=c1cc(CSc2ccc(Cl)cc2)nc(-c2ccccn2)[nH]1,3.46 kMESF (inactive)
15,O=C(OCC(=O)N1CCN(C(=O)c2ccco2)CC1)c1cc(-c2ccc(Cl)c(Cl)c2Cl)nc2ccccc12,4.51 kMESF (inactive)
16,CC(C)Cn1c(=O)c(C(=O)Nc2ccncc2)c(O)c2ccccc21,3.98 kMESF (inactive)
17,O=C(Nc1nc(-c2ccccn2)cs1)c1cc2ccccc2o1,5.47 kMESF (inactive)
18,Oc1c(CN2CCCCC2)cc(Br)c2cccnc12,5.16 kMESF (inactive)
19,N/C(Cc1ccc(Cl)cc1Cl)=N\OC(=O)c1ccccc1,2.82 kMESF (inactive)
